Source: patent US20010039295A1, “N,N'-bis(2-hydroxybenzyl)-ethylenediamine-N,N'-diacetic acid in iron chelating therapy” (priority 1999, published 2001)
Counter-ions that a name gives are not always drawn.

How the values were obtained:
[1] = typical, parenteral therapy; cited from earlier work
[2] = test system: iron loaded Cebus apella monkey; conditions: Cebus apella monkey screen, DFOM subcutaneous (Bergeron et al. 1993; Peter et al. 1994); cited from earlier work
[3] = IV bolus, conscious rats, 200-300 mg/kg
[4] = test system: iron loaded Cebus apella monkey; experiment: Iron-balance study (iron clearing efficiency) in iron-loaded Cebus apella monkeys
[5] = Impact of IV chelator on blood pressure and heart rate in normotensive rats; assay type: in vivo, Sprague Dawley rats
Procedure: Owing to the profound impact that DFO administered IV can have on blood pressure and cardiac function (Whitten, D. F.; Gibson, G. W.; Good, M. H.; Goodwin, J. F.; Brough, A. J. Studies in Acute Iron Poisoning. I. Desferrioxamine in the Treatment of Acute Iron Poisoning: Clinical Observations, Experimental Studies, and Theoretical Considerations. Pediatrics 1965, 36, 322-335), the manufacter recommends that the drug be given by this route at doses not to exceed 15 mg/kg/h (22 μmol/kg/h). In addition, patients suffering from acute iron toxicity should be given DFO IV only under circumstances of cardiovascular collapse, and even then at doses not to exceed 15 mg/kg/h for the first 1000 mg. Subject IV dosing, if needed, must be at a slower rate not to exceed 125 mg/h. Upon consideration of this, this example compares the impact of DFO and NaHBED administered IV on blood pressure and heart rate in normotensive rodents. The chelators were administered at a dose of 300 μmol/kg in a 0.5-ml volume either by IV bolus (n=5 for both drugs) or by IV infusion over a 20-min period (n=5 for NaHBED, n=4 for DFO) in accordance with the following procedure.
The basic procedure has been described in an earlier publication (Bergeron, R. J.; Wiegand, J.; Sninsky, C. A.; Katovich, M. J. The Impact of Polyamine Analogues on the Blood Pressure of Normotensive and Hypertensive Rats. Clin. Exp. Hypertension 1995, 17, 1197-1217). Briefly, normotensive adult male Sprague Dawley rats (400 g) were anesthetized with sodium pentobarbital (55 mg/kg IP). After the neck and shoulder areas were prepared for surgery, an incision was made into the neck area. The proximal end of the carotid artery was tied off with 3-0 silk; the other end was clamped. Once a piece of PE-50 tubing was inserted approximately 3 cm into the artery and tied into place; the tubing was skin tunneled to the shoulder area. The jugular vein was cannulated using a similar procedure. Both of the tubings were flushed with heparin (100 U/ml); a stylet was inserted.
Approximately 24 h after the surgery, the animals were placed into individual cages and were connected to a blood pressure transducer (ADInstrurnents, Inc., Milford, MA) via the carotid catheter. […]
After a ½-h stabilization period, 0.5 ml of saline was administered as an IV bolus via the jugular vein catheter, and the blood pressure and heart rate were monitored for 5 min. […] The blood pressure and heart rate readings were taken for 1 h post-drug, during which the animals were unrestrained.
Rats receiving the drug as a 20-min IV infusion (n=5 for HBED, n=4 for DFO) were allowed to acclimate as above. […] Blood pressure and heart rate were monitored during the infusion and for one hour thereafter.

[6] = given orally to human patients; cited from earlier work
[7] = IV push, single dose 75 μmol/kg
[8] = 300 μmol/kg, 20-min IV infusion

CC(=O)N(O)CCCCCNC(=O)CCC(=O)N(O)CCCCCNC(=O)CCC(=O)N(O)CCCCCN [DFO, deferoxamine B]
share of the compound administered that binds iron [1]: ≤ 5%
activity compared with HBED or its dimethyl ester given orally [2]: significantly higher activity

O=C(O)CN(CCN(CC(=O)O)Cc1ccccc1O)Cc1ccccc1O [HBED monosodium salt, N,N′-bis(2-hydroxybenzyl)-ethylenediamine-N,N′-diacetic acid]
side-effects [3]: no apparent side-effects
net iron excretion relative to similar doses of subcutaneous DFOM ([4]; IV push 75 μmol/kg vs subcutaneous DFOM): nearly three times
share of excreted iron in the stool [4, 7]: 70%
share of excreted iron in the urine [4, 7]: 30%
effect on blood pressure ([5]; 300 μmol/kg IV bolus): no effect
effect on heart rate ([5]; 300 μmol/kg IV bolus): no effect
effect on blood pressure [5, 8]: no effect
effect on heart rate [5, 8]: no effect

O=C(O)CN(CCN(CC(=O)O)Cc1ccccc1O)Cc1ccccc1O [HBED, N,N′-bis(2-hydroxybenzyl)-ethylenediamine-N,N′-diacetic acid]
iron excretion level [6]: ineffective for the treatment of iron overload
